Measured values: patent US11396493B2, “Amorphous pyrrolidine derivative as PPAR agonist and preparation method thereof” (GUANGDONG RAYNOVENT BIOTECH CO., LTD., priority 2017, dated 2022)

How the values were obtained:
[1] = target: T1, PPAR Alpha (Homo sapiens, UniProt Q07869); assay: PathHunter NHR protein interaction test, agonist mode, PPAR Alpha; type: cell-based
T1 sequence (Q07869 1-468): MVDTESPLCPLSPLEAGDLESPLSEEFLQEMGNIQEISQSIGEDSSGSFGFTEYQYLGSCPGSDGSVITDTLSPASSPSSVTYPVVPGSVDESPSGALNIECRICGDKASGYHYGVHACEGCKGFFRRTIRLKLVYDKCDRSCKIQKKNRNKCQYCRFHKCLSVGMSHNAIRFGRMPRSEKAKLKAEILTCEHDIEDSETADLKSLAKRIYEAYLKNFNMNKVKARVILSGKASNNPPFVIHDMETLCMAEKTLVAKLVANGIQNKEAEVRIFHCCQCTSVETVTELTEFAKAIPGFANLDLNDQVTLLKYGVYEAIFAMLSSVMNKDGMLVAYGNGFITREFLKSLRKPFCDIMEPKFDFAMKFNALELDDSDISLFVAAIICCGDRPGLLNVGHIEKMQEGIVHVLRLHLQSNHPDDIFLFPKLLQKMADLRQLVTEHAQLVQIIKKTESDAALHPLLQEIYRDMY
Text: (§1) Principles of in Vitro Test of PPAR Agonist Activity
(§2) Nuclear Hormone Receptor (NHR) Test
(§3) PathHunter's NHR protein interaction and nuclear transfer test are used to detect the activation ability of nuclear hormone receptor in a uniform, non-imaging experiment. This technology is called as enzyme fragment complementation […], and is developed by DiscoverX.
(§4) NHR protein test is based on the detection of the protein-protein interaction between a standard length of NHR protein in an activated state and a nuclear fusion protein containing a steroid receptor co-activating peptide (SRCP) region and one or more standard LXXLL acting sequences.
(§5) NHR is labeled on the ProLink™ component of an EFC test system, and the SRCP region and the enzyme receptor component (EA) are fused and expressed in the nucleus. When bound to the ligand, the NHR will transfer to the nucleus and obtain the SRCP region in which a complementary effect is produced, thereby generating an equivalent amount of activated-galactosidase (-Gal), accompanied by the generation of chemical light signals. The benefits associated with this pathway include reduced incubation time of the compound, direct test of an NHR target, use of human NHR sequences with a standard length, and selection of some new classes of compounds based on the disruption of protein-protein interactions.
(§6) The NHR NT test detected the transfer of an NHR between the cytoplasmic and nuclear compartments. The receptor was labeled on the ProLink™ component of the EFC test system, while the EA and nuclear sequence were fused, thereby limiting the expression of EA on the nucleus. Nucleus transfer leaded to the complementary effect with EA, thereby generating one equivalent of activated galactosidase (-Gal), accompanied by the generation of chemical light signals.
(§7) 1. PathHunter NHR cell strains were spread from a frozen stock in accordance with standard operations.
(§8) 2. Cells were seeded onto a 384-well white cell plate of 20 uL/well, and incubated at 37° C. for an appropriate time prior to test. The culture medium contained activated carbon dextran with filtered serum to reduce the level of hormone expression.
(§9) Experiments of Agonist Mode:
(§10) 1. As for the measurement of an agonist activity, it is required to incubate the cells with the compound to induce a response.
2. […]
(§11) 2. The chemiluminescence signals generated by the microplate were to be detected by a PerkinElmer Envision instrument.
(§12) 1. The activity of the compound was analyzed by CIBS data analysis software (ChemInnovation, CA).
(§13) 2. For experiments of agonist mode, the percentage activity is calculated by the following formula: % activity=100%×(the mean RLU of the compound to be tested−the mean background RLU of the medium)/(the mean of maximum control of the ligand−the mean background RLU of the medium)

[2] = target: T2, PPAR Delta (Homo sapiens, UniProt Q03181); assay: PathHunter NHR protein interaction test, agonist mode, PPAR Delta; type: cell-based
T2 sequence (Q03181 1-441): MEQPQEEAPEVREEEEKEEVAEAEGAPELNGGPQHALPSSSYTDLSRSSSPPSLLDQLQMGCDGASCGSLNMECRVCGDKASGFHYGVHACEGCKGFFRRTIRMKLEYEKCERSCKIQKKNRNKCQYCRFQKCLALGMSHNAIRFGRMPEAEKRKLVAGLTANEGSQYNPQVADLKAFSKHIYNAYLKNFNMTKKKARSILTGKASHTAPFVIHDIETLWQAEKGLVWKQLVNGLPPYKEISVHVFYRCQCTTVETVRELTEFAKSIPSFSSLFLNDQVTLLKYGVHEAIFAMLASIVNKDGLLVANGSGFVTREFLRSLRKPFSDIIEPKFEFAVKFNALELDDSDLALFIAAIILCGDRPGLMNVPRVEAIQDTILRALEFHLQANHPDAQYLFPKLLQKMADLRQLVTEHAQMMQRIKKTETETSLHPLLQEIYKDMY
Text: as §1, §2, §3, §4, §5, §6, §7, §8, §9, §10
2. […]
as §11, §12, §13

[3] = Solid stability test under high temperature and high humidity (40° C./75% humidity), HPLC; type: physicochemical
Protocol: Samples (each about 100 mg) of the amorphous form of the compound of formula (I) were weighed in duplicates, and placed on the bottom of a glass sample bottle to spread out into a thin layer. The mouth of the glass sample bottle was sealed with aluminum foil which was pierced to form some holes thereon to ensure that the samples could sufficiently contact with the ambient air. The samples were placed in a constant temperature and humidity chamber at 40° C./75% humidity. The samples stored under the above conditions were sampled and tested on Days 10, 30, 60, and 90. The test results were compared with the initial test results of Day 0.

[4] = Solid physical stability test at high humidity (25° C./92.5% RH), appearance and XRPD; type: physicochemical
Protocol: Samples (each about 100 mg) of the amorphous form of the compound of formula (I) were weighed in duplicates, and placed on the bottom of a glass sample bottle to spread out into a thin layer. The mouth of the glass sample bottle was sealed with aluminum foil which was pierced to form some holes thereon to ensure that the samples could sufficiently contact with the ambient air. The prepared samples were placed under the relative conditions of 25° C./92.5%, and detected for their physical stability on Day 10. Meanwhile, a sample (about 100 mg) of the amorphous form of the compound of formula (I) was separately weighed, placed on the bottom of the glass sample bottle which was sealed with a screw cap, and stored at −20° C. as control. On Day 10, all the samples were taken out and returned to room temperature. The samples were visually observed for their appearance changes, and detected by XRPD for their forms. By comparing the accelerated sample with the control sample, the solid physical stability of the compound of formula (I) was determined.

[5] = Stability tests of the amorphous form in various solvents, XRPD; type: physicochemical; conditions: for Appearance: 40° C. 2 days
Protocol: A plurality of samples of the amorphous form of the compound of formula (I) (each about 20 mg) were respectively added to 0.3-0.4 mL of a single or mixed solvent as listed in the table below, and stirred at 40° C. After being stirred for 2 days, if the sample was still in a state of a solution or close to a solution, it was filtered, followed by natural evaporation of solvent; and if the sample was still a suspension, the sample was centrifuged for collecting the precipitates, and the supernate was placed in a fuming cupboard until the solvent was dried off. Then, the precipitates and the solids obtained after solvent evaporation were placed in a vacuum drying oven at 40° C. overnight. The solids in all the samples were collected and detected by XRPD for their states.

[6] = test system: cytokines of PPAR-associated pathways; assay: Effect on cytokines of PPAR-associated pathways; conditions: no data shown
[7] = target: T3, PPAR Gamma (Homo sapiens, UniProt P37231); assay: PathHunter NHR protein interaction test, agonist mode, PPAR Gamma; type: cell-based; conditions: agonist mode
T3 sequence (P37231 1-505): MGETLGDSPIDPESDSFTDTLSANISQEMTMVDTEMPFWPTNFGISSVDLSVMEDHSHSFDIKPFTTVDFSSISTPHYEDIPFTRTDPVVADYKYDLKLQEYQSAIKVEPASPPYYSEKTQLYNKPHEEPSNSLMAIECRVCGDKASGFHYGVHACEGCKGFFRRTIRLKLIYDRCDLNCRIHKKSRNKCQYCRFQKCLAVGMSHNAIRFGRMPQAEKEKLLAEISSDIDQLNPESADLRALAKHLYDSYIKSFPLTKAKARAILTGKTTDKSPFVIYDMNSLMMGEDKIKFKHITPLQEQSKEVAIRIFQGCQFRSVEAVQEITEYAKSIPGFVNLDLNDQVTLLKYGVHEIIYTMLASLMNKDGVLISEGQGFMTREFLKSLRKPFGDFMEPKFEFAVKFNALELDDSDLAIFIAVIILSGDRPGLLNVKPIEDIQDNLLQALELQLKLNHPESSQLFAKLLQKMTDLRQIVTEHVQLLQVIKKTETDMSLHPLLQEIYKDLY
Text: as §1, §2, §3, §4, §5
The NHR NT test detected the transfer of an NHR between the cytoplasmic and nuclear compartments. […]
as §11, §12, §13

[8] = 40° C./75% humidity, open, Day 10, HPLC
[9] = 40° C./75% humidity, open, Day 30, HPLC
[10] = 40° C./75% humidity, open, Day 60, HPLC
[11] = 40° C./75% humidity, open, Day 90, HPLC

**Q.** For `CC(C)(Sc1ccc(CCN(CCCCC2CCCCC2)C(=O)NC2CCCCC2)cc1)C(=O)O` [GW7647, reference compound], which “PPAR Alpha Maximum stimulus-response value” ([1]; reference agonist, set as 100%) is on record?
**A.** The value was 100%.

**Q.** Which EC50 ([2]; agonist mode) does the source give for `CCCc1c(OCCCOc2ccc(OCC(=O)O)cc2)ccc(C(C)=O)c1O` [L-165,041, reference compound] here?
**A.** Its EC50 is < 100 nM.

**Q.** And the “PPAR Delta Maximum stimulus-response value” ([2]; reference agonist, set as 100%)?
**A.** Its value is 100%.

**Q.** What does the source list for `CSc1ccc(C(=O)[C@@H]2CN(C(=O)Oc3ccccc3)C[C@H]2Cc2cc(C)c(OC(C)(C)C(=O)O)c(C)c2)cc1`?
**A.** Appearance ([3]; 40° C./75% humidity, open, Day 10): Off-white powder; Purity (%) [3, 8]: 97.49%; Total Impurity (%) [3, 8]: 2.51%; Appearance ([3]; 40° C./75% humidity, open, Day 30): Off-white powder; Purity (%) [3, 9]: 97.31%; Total Impurity (%) [3, 9]: 2.69%; Appearance ([3]; 40° C./75% humidity, open, Day 60): Off-white powder; Purity (%) [3, 10]: 97.59%; Total Impurity (%) [3, 10]: 2.41%; Appearance ([3]; 40° C./75% humidity, open, Day 90): Off-white powder; Purity (%) [3, 11]: 97.28%; Total Impurity (%) [3, 11]: 2.72%; stability at high temperature and humidity ([3]; 40° C./75% humidity, up to Day 90): does not exhibit a significant change in content and impurities; Appearance ([3]; Day 0 (initial)): Off-white powder; Purity (%) ([3]; Day 0 (initial), HPLC): 97.37%; Total Impurity (%) ([3]; Day 0 (initial), HPLC): 2.63%; stability at high humidity ([4]; 25° C./92.5% RH, Day 10): does not exhibit form and appearance changes; Appearance ([4]; 25° C./92.5% Relative Humidity (Open), Day 10): Off-white powder; Form ([4]; 25° C./92.5% Relative Humidity (Open), Day 10, XRPD): Amorphous; Appearance ([5]; 1,4-dioxane, about 20 mg in 0.3-0.4 mL, cell wraps: ...Solid precipitated after evaporation of solvent): Suspension (2 days)/Solid; Appearance ([5]; Acetone, about 20 mg in 0.3-0.4 mL, cell wraps: ...Solid precipitated after evaporation of solvent): Suspension (2 days)/Solid; Appearance ([5]; Acetone:water = 3:1, about 20 mg in 0.3-0.4 mL, cell wraps: ...Solid precipitated after evaporation of solvent): Suspension (2 days)/Solid; Appearance ([5]; Acetonitrile, about 20 mg in 0.3-0.4 mL, cell wraps: ...Solid precipitated after evaporation of solvent): Suspension (2 days)/Solid; Appearance ([5]; Acetonitrile:water = 3:1, about 20 mg in 0.3-0.4 mL, cell wraps: ...Solid precipitated after evaporation of solvent): Suspension (2 days)/Solid; Appearance ([5]; Ethanol, about 20 mg in 0.3-0.4 mL, cell wraps: ...Solid precipitated after evaporation of solvent): Suspension (2 days)/Solid; Appearance ([5]; Ethanol:water = 3:1, about 20 mg in 0.3-0.4 mL, cell wraps: ...Solid precipitated after evaporation of solvent): Suspension (2 days)/Solid; Appearance ([5]; Ethyl acetate, about 20 mg in 0.3-0.4 mL, cell wraps: ...Solid precipitated after evaporation of solvent): Suspension (2 days)/Solid; Appearance ([5]; Methanol, about 20 mg in 0.3-0.4 mL, cell wraps: ...after evaporation of solvent): Solid precipitated after; Results (form by XRPD) ([5]; Methanol, stirred at 40° C. 2 days): Amorphous; Appearance ([5]; Methanol:water = 3:1, about 20 mg in 0.3-0.4 mL, cell wraps: ...after evaporation of solvent): Solid precipitated after; Results (form by XRPD) ([5]; Methanol:water = 3:1, stirred at 40° C. 2 days): Amorphous; Appearance ([5]; Tetrafuran, about 20 mg in 0.3-0.4 mL, cell wraps: ...Solid precipitated after evaporation of solvent): Suspension (2 days)/Solid; stability of form in various solvents ([5]; summary of Table 4): does not exhibit any change of form; effect on cytokines of PPAR-associated pathways [6]: obvious inhibitory effect

**Q.** With `CSc1ccc(C(=O)/C=C/c2cc(C)c(OC(C)(C)C(=O)O)c(C)c2)cc1` [GFT-505, Elafibranor, reference compound] as the compound, how does the EC50 ([1]; agonist mode) read?
**A.** The EC50 was > 250 nM.

**Q.** And the EC50 [7]?
**A.** Its EC50 is > 250 nM.
